Measurements published in patent publication US20230026277A1, “COMPOSITION FOR PREVENTION, ALLEVIATION, OR TREATMENT OF RESPIRATORY DISEASE” (MICROX CO., LTD., priority 2019, published 2023).

Experiments:
Format in all cases: in vivo
[1] = system: neutrophils and eosinophils introduced into the airway; assay: Inflammatory cells (neutrophils and eosinophils) in bronchoalveolar lavage fluid, Diff-Quik staining, asthma-induced mice
Protocol: (§1) Eight-week-old female […] mice (Orient Bio Korea Inc., Korea) having no certain pathogen were accommodated in an aseptic laminar-flow cabinet, and bred by supplying a standard solid feed ad libitum. When the following experiment was performed, the mice were made to correspond to 7- to 8-weeks old, and all laboratory animals were managed according to the protocol approved by the Institutional Animal Care and Use Committee of the Chonbuk National University Medical School.
(§2) Also, on days 21 and 28 from the experimental starting date, the mice were put into a plastic box (Plexiglas (Rohm & Haas, Philadelphia, Pa.) exposure chamber; 24.5 cm×40.5 cm×15.0 cm), and 1.5% ovalbumin was evaporated using an ultrasonic nebulizer (NE-U12; output 0.8 mL/min; Omron, Japan), and injected into the box for 30 minutes so that the mice inhaled the evaporated ovalbumin (secondary challenge).
(§3) After the mice were anesthetized, a thin tube was inserted into the airway, and a piston process was repeated using a syringe filled with 0.2 mL of physiological saline to obtain a bronchoalveolar lavage fluid. The bronchoalveolar lavage fluid obtained through this piston process was stored at −70° C. when it was not immediately used in the experiments.
50 μL of the bronchoalveolar lavage fluid obtained in Experimental Method 2 was put on a slide used for the cytospin, and centrifuged for 30 minutes. Thereafter, Diff-Quik staining was performed, and inflammatory cells (neutrophils and eosinophils) were observed using a microscope.
Preparation Example 3 (α,δ-NA-L-G) or α,δ N-acetyl-D-glutamine (α,δ-NA-D-G) was orally administered to the asthma-induced mice of Experimental Method 1 daily from the experimental starting date at a concentration of 50, 100, or 200 μg/kg/day, and the cell numbers of neutrophils and eosinophils introduced into the airway through the method of Experimental Method 3 were measured. The results are shown in A and B of FIG. 3. In this case, the cell numbers were measured at 10 hours (neutrophils) or 48 hours (eosinophils) after a secondary challenge.

IL-4, IL-5, and IL-13 = assay: Cytokines in bronchoalveolar lavage fluid by ELISA, asthma-induced mice
Protocol: as §1, §2, §3
A level of cytokines in the bronchoalveolar lavage fluid obtained in Experimental Method 2 was measured using an ELISA kit. Here, ELISA kits specifically manufactured for TNF-α, IL-4, IL-5, and IL-13 were used.
Preparation Example 3 (α,δ-NA-L-G) or α,δ N-acetyl-D-glutamine was orally administered to the asthma-induced mice of Experimental Method 1 at a concentration of 100, 200, 400 or 800 μg/kg/day 30 minutes before a secondary airway challenge, and levels of IL-4, IL-5, and IL-13 were measured through the method described above in Experimental Method 4 24 hours after the secondary challenge. The results are shown in A and B of FIG. 4.

[2] = system: p-cPLA and p-p38 proteins; assay: Western blot of p-cPLA and p-p38 in lung tissue of asthma-induced mice
Protocol: as §2
(§4) A tissue was extracted from each of the mice manufactured in Experimental Method 1, and finely ground to a cell level. Thereafter, the cells were lysed in a cell lysis buffer containing a protease inhibitor to obtain a cell lysate. The cell lysate was centrifuged to obtain protein. Then, an equivalent amount of the proteins obtained from the cells were loaded on an SDS-PAGE gel and electrophoresed. The proteins present in the electrophoresed gel were transferred to a PVDF membrane. […] The PVDF membrane was washed three times with a TBS-T buffer, and visualized and quantified using an ECL Western blotting detection reagent. […]
Small interfering RNA (siRNA; hereinafter referred to as “MKP-1 siRNA”) against RNA encoding an MKP-1 protein, and control siRNA strands were purchased from SANTA CRUZ (USA). […] An effect of the MKP-1 siRNA interference was determined by measuring an expression level of the MKP-1 protein in the lung tissue through Western blot analysis. […]

CK2α protein = assay: Western blot of CK2α protein in lung of asthma-induced mice
Protocol: as §2
as §4, with “membrane. The PVDF membrane was washed, and added to a blocking buffer in which 5% skim milk was included in a TBS-T buffer, and incubated at room temperature. Then, the PVDF membrane was incubated at room temperature with an antibody diluted 1:1,000 in a TBS-T buffer containing 3% BSA.” for “membrane.”
Specifically, the secondary challenge (ovalbumin injection) was performed according to the method described above in Experimental Method 1, and the lungs were extracted after an hour, and then measured according to the method described above in Experimental Method 7. […] Also, the level of TNF-α corresponding to an NK-κB-dependent cytokine was measured by ELISA according to the method described above in Experimental Method 4. […]
The secondary challenge (ovalbumin injection) was performed according to the method described above in Experimental Method 1, and the lungs were extracted after 1 or 2 hours, and then measured according to the method described above in Experimental Method 7. […]

CC(=O)NC(=O)CC[C@H](NC(C)=O)C(=O)O [Preparation Example 3, 2,5-diacetamido-5-oxopentanoic acid]
inflow of the neutrophils and eosinophils into the airway ([1]; asthma-induced mice, oral daily 50, 100 or 200 μg/kg/day, neutrophils 10 hours, eosinophils 48 hours after secondary challenge, FIG. 3): very effectively inhibited | inhibition of neutrophils, compared to the eosinophils ([1]; asthma-induced mice, oral daily, from a concentration of 50 μg/kg/day, FIG. 3A): very effectively inhibited the neutrophils | cell numbers of the neutrophils and eosinophils ([1]; experiment [5-6], together with siRNA specific to MKP-1, FIG. 12): increased | cell numbers of neutrophils and eosinophils ([1]; experiment [5-6], without MKP-1 siRNA, FIG. 12): decreased | levels of IL-4, IL-5, and IL-13 (IL-4, IL-5, and IL-13; asthma-induced mice, oral 200 μg/kg/day 30 minutes before secondary challenge, measured 24 hours after, FIG. 4A): remarkably inhibited | expression levels of the cytokines (IL-4, IL-5, and IL-13; experiment [5-6], together with siRNA specific to MKP-1, FIG. 13): increased | expression levels of the cytokines (IL-4, IL-5, and IL-13) (IL-4, IL-5, and IL-13; experiment [5-6], without MKP-1 siRNA, FIG. 13): decreased | levels of the p-cPLA and p-p38 proteins ([2]; lung tissue, oral daily 200, 500 or 1,000 μg/kg/day, 10 and 30 minutes after secondary challenge, FIG. 7): decreased depending on the concentration | phosphorylation levels of cPLA2 and p38 ([2]; with MKP-1 siRNA treatment, same conditions as [5-1], FIG. 8): increased | effect for reducing the level of CK2α (CK2α protein; 400 μg/kg/day with siRNA specific to MKP-1, FIG. 9): not observed | level of the CK2α protein (CK2α protein; oral daily 400 μg/kg/day, lungs extracted an hour after secondary challenge, FIG. 9A): decreased
